# Reference: US20170165286A1, “COMPOSITIONS AND METHODS FOR TREATING DIABETES AND LIVER DISEASES” (Cempra Pharmaceuticals, Inc., priority 2014, published 2017)
# Columns and labels:
# Format in all cases: in vivo
# STAM mice [1] = assay: STAM model: liver triglyceride content
# Experimental: (§1) NASH-HCC (STAM™) Model. C57BL/6 (15-day-pregnant female) mice are obtained from Charles River Laboratories Japan (Kanagawa, Japan). Male pups are selected for the study. NASH is induced in male mice by a single subcutaneous injection of 200 μg streptozotocin (STZ, Sigma-Aldrich, USA) solution 2 days after birth, followed by feeding a HFD (57 kcal % fat, cat#: HFD32, CLEA Japan, Japan) beginning at 4 weeks of age. At 5 weeks of age, mice are divided into a control group and one or more treated group (generally 8 mice per group). Animals are sacrificed at 9 weeks of age, and biochemical, histological, and gene expression analyses are performed.
# (§2) During weeks 5-9 (starting at day 35±2), test compound is administered (generally orally) at various doses diluted to 10 mL/kg and according to various dosing protocols to treatment groups (8 mice each) while a second group (8 mice) is administered vehicle only. Animals are sacrificed at 9 weeks.
# Measurement of liver biochemistry—liver triglyceride content. Liver total lipid-extracts are obtained by Folch's method (Folch J. et al., J. Biol. Chem., 1957; 226:497). Liver samples are homogenized in chloroform-methanol (2:1, v/v) and incubated overnight at room temperature. After washing with chloroform-methanol-water (8:4:3, v/v/v), the extracts are evaporated to dryness, and dissolved in isopropanol. Liver triglyceride (TG) and cholesterol contents were measured by Triglyceride E-test and Cholesterol E-test (Wako Pure Chemical Industries, Japan), respectively. Extracts are diluted 2-fold in isopropanol when the triglyceride content exceeds the detection limit.
# (§3) Illustrative dose response test groups. Group 1-Normal. Eight normal mice are fed with a normal diet ad libitum without any treatment until 9 weeks of age. Group 2-Vehicle. Eight NASH mice are orally administered vehicle (0.5% w/v methylcellulose+0.2% Tween®80) in a volume of 10 mL/kg twice daily from 5 to 9 week of age. Group 3-solithromycin 5 mg/kg. Eight NASH mice are orally administered vehicle supplemented with solithromycin at a dose of 5 mg/kg in the morning and the vehicle in the evening (5 mg/kg/day) from 5 to 9 weeks of age. Group 4-solithromycin 10 mg/kg. Eight NASH mice are orally administered vehicle supplemented with solithromycin at a dose of 10 mg/kg twice daily (20 mg/kg/day) from 5 to 9 weeks of age. Group 5-solithromycin 25 mg/kg. Eight NASH mice are orally administered vehicle supplemented with solithromycin at a dose of 25 mg/kg twice daily (50 mg/kg/day) from 5 to 9 weeks of age. Group 6-solithromycin 50 mg/kg. Eight NASH mice are orally administered vehicle supplemented with solithromycin at a dose of 50 mg/kg once daily (50 mg/kg/day) from 5 to 9 weeks of age.
# [2] = QT / tQT effects and plasma levels
# Text: The compounds described herein, including solithromycin, are effective in treating host animals with high cardiovascular disease risk.
# STAM mice [3] = assay: NASH-HCC (STAM) model: body weight, liver weight, macroscopic liver appearance; settings: for Liver Weight / Liver-to-body Weight Ratio: 5-9 wks
# Experimental: as §1
# All animals used in the study are housed and cared for in accordance with local regulations. Test animals are maintained in an SPF facility under controlled conditions of temperature (23±2° C.), humidity (45±10%), lighting (12-hour artificial light and dark cycles; light from 8:00 to 20:00) and air exchange. A high pressure (20±4 Pa) is maintained in the experimental room. Test animals are housed in polycarbonate cages KN-600 (Natsume Seisakusho, Japan) with a maximum of 4 mice per cage. Sterilized PULMASμ (Material Research Center, Japan) are used for bedding and replaced once a week. Sterilized solid HFD is provided ad libitum, being placed in the metal lid on top of the cage. Pure water is provided ad libitum from a water bottle equipped with a rubber stopper and a sipper tube. Water bottles are replaced once a week, cleaned and sterilized in autoclave and reused.
# Generally, elevated NAFLD activity score (NAS)≧5, steatosis, and elevated ALT is evident by week 6, NASH is evident by week 7, perisinusoidal fibrosis is evident by week 9, nodules are evident by week 12, and HCC is evident by week 16. It is to be understood herein that perisinusoidal fibrosis in mice is the model for NASH in humans (Fujii et al., Med Mol Morphol 46: 141-152 (2013)).
# as §2, §3
# [4] = 5 mg/kg q.d. oral, listed as Solithromycin, 5 mg/kg
# [5] = 10 mg/kg b.i.d. oral, listed as Solithromycin, 10 mg/kg
# [6] = 25 mg/kg b.i.d. oral, listed as Solithromycin, 25 mg/kg
smiles,measurement,setting,value
CC[C@H]1OC(=O)[C@@](C)(F)C(=O)[C@H](C)[C@@H](O[C@@H]2O[C@H](C)C[C@H](N(C)C)[C@H]2O)[C@](C)(OC)C[C@@H](C)C(=O)[C@H](C)[C@H]2N(CCCCn3cc(-c4cccc(N)c4)nn3)C(=O)O[C@]12C [solithromycin],Liver triglyceride,STAM mice [1]; 5 mg/kg q.d.,127.7 ± 62.3 mg/g liver
same,Liver triglyceride,STAM mice [1]; 10 mg/kg b.i.d.,161.8 ± 44.5 mg/g liver
same,Liver triglyceride,STAM mice [1]; 25 mg/kg b.i.d.,100.8 ± 35.3 mg/g liver
same,Liver triglyceride content compared to vehicle group,STAM mice [1]; any doses (Groups 3-6),no statistically significant differences
same,Plasma levels achieved,[2]; PK analysis in QT evaluation,2000 to 3000 ng/mL
same,QT or tQT prolongation,[2]; dosed orally or intravenously,does not show any QT or tQT prolongation
same,Liver Weight,"STAM mice [3]; 5 mg/kg q.d. oral, 5 mg/kg",no statistically significant difference
same,Liver-to-body Weight Ratio,"STAM mice [3]; 5 mg/kg q.d. oral, 5 mg/kg",no statistically significant differences
same,Liver Weight,STAM mice [3]; [4],1335 ± 185 mg
same,Liver-to-body Weight Ratio,STAM mice [3]; [4],7.0 ± 0.8%
same,Liver Weight,"STAM mice [3]; 10 mg/kg b.i.d. oral, 10 mg/kg",significant reductions
same,Liver-to-body Weight Ratio,"STAM mice [3]; 10 mg/kg b.i.d. oral, 10 mg/kg",no statistically significant differences
same,Liver Weight,STAM mice [3]; [5],1187 ± 134 mg
same,Liver-to-body Weight Ratio,STAM mice [3]; [5],6.7 ± 0.8%
same,Liver Weight,"STAM mice [3]; 25 mg/kg b.i.d. oral, 25 mg/kg",significant reductions
same,Liver-to-body Weight Ratio,"STAM mice [3]; 25 mg/kg b.i.d. oral, 25 mg/kg",significant decrease
same,Liver Weight,STAM mice [3]; [6],1087 ± 97 mg
same,Liver-to-body Weight Ratio,STAM mice [3]; [6],5.9 ± 0.7 %
same,Liver Weight,STAM mice [3]; 50 mg/kg q.d. oral,1242 ± 141 mg
same,Liver-to-body Weight Ratio,STAM mice [3]; 50 mg/kg q.d. oral,6.0 ± 0.7 %
same,Mean body weight on the day of sacrifice compared to vehicle group,STAM mice [3]; Group 4 (10 mg/kg b.i.d.),significant decrease
same,Mean body weight on the day of sacrifice compared to vehicle group,"STAM mice [3]; Groups 3, 5, 6",no significant differences
same,Macroscopic liver appearance (coloration),STAM mice [3]; as a function of increasing dose,substantially less yellow in color
